How the values were obtained:
[1] = system: Cucumber Fusarium wilt-causing microbe (Fusarium oxysporum); assay: Antimicrobial activity to various pathogenic microbes: F.c; conditions: 50 mg/L
[2] = system: Rice bakanae disease-causing microbe (Gibberella fujikuroi); assay: Antimicrobial activity to various pathogenic microbes: G.f; conditions: 50 mg/L
[3] = system: Rice blast-causing microbe (Pyricularia oryzae); type: cell-based; conditions: 50 mg/L
[4] = system: Wheat fusarium blight-causing microbe (Fusarium graminearum); type: cell-based; conditions: 50 mg/L
[5] = system: wheat leaf rust-causing microbe; assay: Wheat leaf rust-controlling activity (foliar spray, pot test); type: in vivo, Puccinia recondita; conditions: Concentration 25 g/ha; wettable powder sprayed on wheat (Norin No. 61), 9 to 14 days after inoculation
[6] = system: Wheat eye spot-causing microbe (Pseudocercoporella herpotrichoides); assay: Antimicrobial activity to various pathogenic microbes: P.h; conditions: 50 mg/L
Procedure: (§1) An inventive compound was dissolved in dimethylsulfoxide 2 ml. The solution 0.6 ml was added to a PDA medium (potato-dextrose-agar medium) 60 ml at around 60° C.
The plates were cultured at 25° C. for 14 days after inoculation and the diameter of the microbial colony was determined. Hyphal expansion-inhibiting rate was calculated according to the following equation: R=100(dc−dt)/dc (wherein, R: hyphal expansion-inhibiting rate (%), dc: diameter of microbial colony on non-treated flat plate, dt: diameter of microbial colony on chemically-treated flat plate).
(§2) The results thus obtained were evaluated in 5 stages according to the criteria below:
Wheat eye spot-causing microbe (Pseudocercoporella herpotrichoides) P.h

[7] = system: Apple alternaria blotch-causing microbe (Alternaria alternata); assay: Antimicrobial activity to various pathogenic microbes: A.m; conditions: 50 mg/L
[8] = system: Wheat glume blotch-causing microbe (Phaeosphaeria nodorum); assay: Antimicrobial activity to various pathogenic microbes: P.n; conditions: 50 mg/L
Procedure: as §1
(§3) A flat plate containing a test microbe (wheat leaf blight-causing microbe) cultured separately was punched into pieces with a cork borer having a diameter of 4 mm and the circular plate obtained was placed on the flat plate media containing the chemical described above. The plates were cultured at 25° C. for 14 days after inoculation and the diameter of the microbial colony was determined. Hyphal expansion-inhibiting rate was calculated according to the following equation: R=100(dc−dt)/dc (wherein, R: hyphal expansion-inhibiting rate (%), dc: diameter of microbial colony on non-treated flat plate, dt: diameter of microbial colony on chemically-treated flat plate).
(§4) In this Test Example, the antimicrobial activity of the inventive compounds to various plant disease-causing fungi and industrial material-eroding microorganisms was studied by the method described in Example 1.
as §2
Wheat glume blotch-causing microbe (Phaeosphaeria nodorum) P.n

[9] = system: Gray mold-causing microbe (Botrytis cinerea); assay: Antimicrobial activity to various pathogenic microbes: B.c; conditions: 50 mg/L
Procedure: as §1, §3, §4, §2
Gray mold-causing microbe (Botrytis cinerea) B.c

[10] = system: Barley scald-causing microbe (Rhynchosporium secalis); assay: Antimicrobial activity to various pathogenic microbes: R.sec; conditions: 50 mg/L
Procedure: as §1, §3, §4, §2
Barley scald-causing microbe (Rhynchosporium secalis) R.sec

[11] = system: Sclerotinia rot-causing microbe (Sclerotinia sclerotiorum); assay: Antimicrobial activity to various pathogenic microbes: S.s; conditions: 50 mg/L
[12] = system: Barley loose smut-causing microbe (Ustilago nuda); assay: Antimicrobial activity to various pathogenic microbes: U.n; conditions: 50 mg/L
[13] = system: wheat leaf blight-causing microbe; assay: Antimicrobial activity to wheat leaf blight-causing microbe (PDA plate, hyphal expansion inhibition); type: cell-based, Septoria tritici; conditions: Concentration 50 mg/L, PDA medium, 25° C., 14 days
Procedure: In this Test Example, antimicrobial activity of the inventive compounds to wheat leaf blight-causing microbe was determined and compared with that of the comparative compound (1).

SMILES	Growth inhibition (hyphal expansion-inhibiting rate grade) F.c [1]	Growth inhibition (hyphal expansion-inhibiting rate grade) G.f [2]	Growth inhibition (hyphal expansion-inhibiting rate grade) P.o [3]	Growth inhibition (hyphal expansion-inhibiting rate grade) F.g [4]	Controlling index [5]	Growth inhibition (hyphal expansion-inhibiting rate grade) P.h [6]	Growth inhibition (hyphal expansion-inhibiting rate grade) A.m [7]	Growth inhibition (hyphal expansion-inhibiting rate grade) P.n [8]	Growth inhibition (hyphal expansion-inhibiting rate grade) B.c [9]	Growth inhibition (hyphal expansion-inhibiting rate grade) R.sec [10]	Growth inhibition (hyphal expansion-inhibiting rate grade) S.s [11]	Growth inhibition (hyphal expansion-inhibiting rate grade) U.n [12]	Growth inhibition [13]	inhibition at 50 µg/mL ([13]; 336 h, read-out: Growth inhibition) [%]
C#CCOC(=O)[C@]1(C)CC[C@H](Cc2ccc(Cl)cc2)[C@@]1(O)Cn1cncn1 (racemic) [Compound I-135, 2-propynyl-(1RS,2SR,3RS)-3-(4-chlorobenzyl)-2-hydroxy-1-methyl-2-(1H-1,2,4-triazol-1-ylmethyl)cyclopentanecarboxylate]	5 (hyphal expansion-inhibiting rate: 80% or more)	5 (hyphal expansion-inhibiting rate: 80% or more)	5 (hyphal expansion-inhibiting rate: 80% or more)	5 (hyphal expansion-inhibiting rate: 80% or more)	5 (81 to 100)	5 (hyphal expansion-inhibiting rate: 80% or more)	5 (hyphal expansion-inhibiting rate: 80% or more)	5 (hyphal expansion-inhibiting rate: 80% or more)	5 (hyphal expansion-inhibiting rate: 80% or more)	5 (hyphal expansion-inhibiting rate: 80% or more)	5 (hyphal expansion-inhibiting rate: 80% or more)	5 (hyphal expansion-inhibiting rate: 80% or more)	5 (hyphal expansion-inhibiting rate: 80% or more)	
COC(=O)[C@@]1(CCl)CC[C@H](Cc2ccc(F)cc2)[C@@]1(O)Cn1cncn1 (racemic) [Compound I-78, methyl-(1RS, 2SR,3RS)-3-(4-fluorobenzyl)-1-chloromethyl-2-hydroxy-2-(1H-1,2,4-triazol-1-ylmethyl)cyclopentanecarboxylate]	5 (hyphal expansion-inhibiting rate: 80% or more)	5 (hyphal expansion-inhibiting rate: 80% or more)	5 (hyphal expansion-inhibiting rate: 80% or more)	5 (hyphal expansion-inhibiting rate: 80% or more)	5 (81 to 100)	5 (hyphal expansion-inhibiting rate: 80% or more)	5 (hyphal expansion-inhibiting rate: 80% or more)	5 (hyphal expansion-inhibiting rate: 80% or more)	5 (hyphal expansion-inhibiting rate: 80% or more)	5 (hyphal expansion-inhibiting rate: 80% or more)	5 (hyphal expansion-inhibiting rate: 80% or more)	5 (hyphal expansion-inhibiting rate: 80% or more)		> 80
